Assay results: article PMC11191877, “Discovery of new Schiff bases of the disalicylic acid scaffold as DNA gyrase and topoisomerase IV inhibitors endowed with antibacterial properties” (Frontiers in Chemistry, 2024)
≈ marks a conversion by molar mass, not a printed value.

Experiments:
[1] = tested on: Mycobacterium tuberculosis H37Rv; parameters: method as in Souza et al., 2007; details: ref Souza et al., 2007; cited from earlier work
J774 macrophages = tested on: J774 macrophages; parameters: method as in Souza et al., 2007; details: ref Souza et al., 2007, cited from earlier work
E. coli topoisomerase IV = biological target: T1, E. coli topoisomerase IV (Escherichia coli, UniProt P20083); experiment: E. coli topoisomerase IV inhibitory assay (Inspiralis kit); assay type: biochemical; details: at 1 µM of the compound
T1 construct: purchased Inspiralis
T1 sequence (P20083 whole entry): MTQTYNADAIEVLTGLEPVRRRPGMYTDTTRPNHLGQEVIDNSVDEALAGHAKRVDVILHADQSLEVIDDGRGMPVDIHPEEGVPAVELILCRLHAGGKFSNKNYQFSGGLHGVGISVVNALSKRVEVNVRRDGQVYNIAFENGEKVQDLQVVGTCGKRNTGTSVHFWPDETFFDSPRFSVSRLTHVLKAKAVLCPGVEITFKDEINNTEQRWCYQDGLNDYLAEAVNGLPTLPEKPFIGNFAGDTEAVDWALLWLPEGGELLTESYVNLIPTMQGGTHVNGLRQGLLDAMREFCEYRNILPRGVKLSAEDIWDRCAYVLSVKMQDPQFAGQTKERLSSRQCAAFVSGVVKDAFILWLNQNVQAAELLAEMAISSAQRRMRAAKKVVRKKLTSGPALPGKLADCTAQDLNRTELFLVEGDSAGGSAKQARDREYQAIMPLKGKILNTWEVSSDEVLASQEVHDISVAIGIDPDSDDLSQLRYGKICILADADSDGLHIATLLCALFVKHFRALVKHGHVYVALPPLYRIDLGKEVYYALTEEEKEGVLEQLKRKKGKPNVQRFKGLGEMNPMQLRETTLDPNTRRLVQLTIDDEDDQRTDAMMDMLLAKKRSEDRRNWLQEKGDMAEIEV
T1 sequence (P0AFI2 whole entry, further chain): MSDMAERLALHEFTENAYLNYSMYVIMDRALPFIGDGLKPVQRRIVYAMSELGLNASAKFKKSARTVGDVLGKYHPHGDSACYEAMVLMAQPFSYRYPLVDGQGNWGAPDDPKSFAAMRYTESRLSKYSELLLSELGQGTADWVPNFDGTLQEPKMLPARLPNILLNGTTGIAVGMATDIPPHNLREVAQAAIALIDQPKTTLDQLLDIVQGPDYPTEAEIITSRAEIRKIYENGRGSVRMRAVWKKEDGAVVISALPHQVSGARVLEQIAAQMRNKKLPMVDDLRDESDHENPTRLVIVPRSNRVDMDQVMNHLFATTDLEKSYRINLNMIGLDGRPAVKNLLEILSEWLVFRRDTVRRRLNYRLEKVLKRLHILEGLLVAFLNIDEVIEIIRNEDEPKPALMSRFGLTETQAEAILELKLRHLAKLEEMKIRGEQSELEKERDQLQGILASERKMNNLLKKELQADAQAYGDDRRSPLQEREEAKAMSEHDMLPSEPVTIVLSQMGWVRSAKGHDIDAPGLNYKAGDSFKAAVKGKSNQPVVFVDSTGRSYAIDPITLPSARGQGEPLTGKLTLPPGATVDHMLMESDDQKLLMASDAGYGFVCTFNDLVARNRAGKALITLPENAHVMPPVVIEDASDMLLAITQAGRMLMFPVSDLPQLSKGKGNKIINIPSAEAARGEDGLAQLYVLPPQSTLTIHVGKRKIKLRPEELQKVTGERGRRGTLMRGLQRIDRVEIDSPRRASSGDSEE
Method: (§1) NaCl and 50 mM MgCl2) was added to terminate the enzymatic reaction. After
(§2) Initial screening was done at 100 or 10 μM concentration
A single compound was designated with four wells followed by incubation of
After incubation, medium was removed completely from the […]

Bacillus subtilis [2] = experiment: MIC, twofold serial dilution, 96-well microtiter plate; assay type: cell-based; details: Bacillus subtilis (G+)
Method: (§3) The antibacterial activity of compounds 5f, 5h, 5i, and 5k were evaluated using a twofold serial dilution method ([Parasa et al., 2011]), with ciprofloxacin as the reference compound. The MIC values for certain compounds were obtained through dose-response experiments. The stated values are based on a minimum of two independent experiments, with three replicates per concentration in each experiment. The experimental details can be found in Appendix A (Supplementary Material). […]
(§4) 4.2.2. Minimum inhibitory concentration assay
(§5) In 96-well microtiter plates and […] of fresh bacterial culture of a single McFarland unit overnight, a double serial dilution of each compound […] in sterile standard saline were prepared to every single source well. Ciprofloxacin antibiotic (5 mg / mL - 1) and normal saline were included as standard reference in each assay. The plates were incubated at 37 0C overnight. As an indicator of bacterial growth, […] of p-iodonitrotetrazolium violet (INT) was added to each well and incubated at 37 0C for 30 […]
(§6) min. MIC values are recorded as the lowest concentration of the extract that completely inhibited bacterial growth that is clear well. The colorless tetrazolidium salt acts as an electron accepter and is reduced to a red colored formazan product by biological activity organisms. Where bacterial growth was inhibited, the solution in the well remained clear after incubation with INT. […]
(§7) SybrGOLD in T10 buffer (10 mM Tris HCl with pH 8.0 and 1 mM EDTA) was added. […]

Staphylococcus aureus = experiment: as above; assay type: cell-based; details: Staphylococcus aureus (G+)
Method: as §3, §4, §5, §6, §7

Pseudomonas aeruginosa [3] = experiment: as above; assay type: cell-based; details: Pseudomonas aeruginosa (G−)
Method: as §3, §4, §5, §6, §7

Escherichia Coli [4] = experiment: as above; assay type: cell-based; details: Escherichia coli (G−)
Method: as §3, §4, §5, §6, §7

Candida albicans = experiment: Modified Kirby-Bauer disc diffusion (antifungal); assay type: cell-based
Method: (§8) The antimicrobial activity of compounds 5a-k was assessed using a modified Kirby-Bauer disc diffusion method ([Alkhaldi et al., 2019]; [Al-Wahaibi et al., 2021b]; [Manso et al., 2021]; [Ecevit et al., 2022]). […] Ciprofloxacin was used as a reference medication. […] Compounds 5f-k had promising antibacterial action against Gram-positive and Gram-negative bacteria, ranging from 75% to 115% of typical ciprofloxacin levels.
(§9) In addition, the synthesized compounds 5a-k were evaluated for their antifungal activity against A. flavus and C. albicans, with Fluconazole as a reference medication (Table 1). […]
(§10) incubated at 35-37 °C for 24-48 hours and yeast as Candida albicans (ATCC 7102) incubated at 30 °C for 24-48 hours and, then the diameters of the inhibition zones were measured in millimeters. Standard discs of ciprofloxacin (Antibacterial agent), Fluconazole (Antifungal agent) served as positive controls for antimicrobial activity but filter discs impregnated with 10 µl of solvent (distilled water, chloroform, DMSO) were used as a negative control. Blank paper disks (Schleicher & Schuell, Spain) with a diameter of 8.0 mm were impregnated 10µ of tested concentration of the stock solutions. When a filter paper disc impregnated with a tested chemical is placed on agar the chemical will diffuse from the disc into the agar. This diffusion will place the chemical in the agar only around the disc. The solubility of the chemical and its molecular size will determine the size of the area of chemical infiltration around the disc. If an organism is placed on the agar it will not grow in the area around the disc if it is susceptible to the chemical. This area of no growth around the disc is known as a “Zone of inhibition” or" Clear zone". For the disc diffusion, the zone diameters were measured with slipping calipers of the National Committee for Clinical Laboratory […]
(§11) Agar-based methods such as E-test and disk diffusion can be good alternatives because they are simpler and faster than broth-based methods. […]

Aspergillus flavus = experiment: Modified Kirby-Bauer disc diffusion (antifungal); assay type: cell-based; details: Aspergillus flavus (fungi)
Method: as §8, §9
Standard discs of ciprofloxacin (Antibacterial agent), Fluconazole (Antifungal agent) served as positive controls for antimicrobial activity but filter discs impregnated with 10 µl of solvent (distilled water, chloroform, DMSO) were used as a negative control. Blank paper disks (Schleicher & Schuell, Spain) with a diameter of 8.0 mm were impregnated 10µ of tested concentration of the stock solutions. When a filter paper disc impregnated with a tested chemical is placed on agar the chemical will diffuse from the disc into the agar. This diffusion will place the chemical in the agar only around the disc. The solubility of the chemical and its molecular size will determine the size of the area of chemical infiltration around the disc. If an organism is placed on the agar it will not grow in the area around the disc if it is susceptible to the chemical. This area of no growth around the disc is known as a “Zone of inhibition” or" Clear zone". For the disc diffusion, the zone diameters were measured with slipping calipers of the National Committee for Clinical Laboratory […]
as §11

Staph. aureus = experiment: Modified Kirby-Bauer disc diffusion; assay type: cell-based, Staphylococcus aureus; details: Staph. aureus (G+)
Method: as §8, with “levels. […]” for “levels.”
as §10, §11

E. coli DNA gyrase = biological target: T2, E. coli DNA gyrase (Escherichia coli, UniProt P0AES6); experiment: E. coli DNA gyrase supercoiling assay (Inspiralis kit); assay type: biochemical; details: at 1 µM of the compound
T2 construct: purchased Inspiralis
Method: The fluorescence was measured with a microplate reader (BioTek Synergy H4,
as §1, §2

Bacillus subtilis [5] = experiment: Modified Kirby-Bauer disc diffusion; assay type: cell-based; details: Bacillus subtilis (G+)
Method: as §8, with “levels. […]” for “levels.”
as §10, §11

Pseudomonas aeruginosa [6] = experiment: Modified Kirby-Bauer disc diffusion; assay type: cell-based; details: Pseudomonas aeruginosa (G−)
Method: as §8, with “levels. […]” for “levels.”
as §10, §11

Escherichia Coli [7] = experiment: Modified Kirby-Bauer disc diffusion; assay type: cell-based; details: Escherichia Coli (G−)
Method: as §8, with “levels. […]” for “levels.”
as §10, §11

Compound | MIC [1] | cytotoxic effects on J774 macrophages (J774 macrophages; 1,000 μg/mL) | viable macrophage cells (J774 macrophages; J774 macrophages, 1,000 μg/mL) | RA (residual activity of the enzyme) E. Coli Topo IV (E. coli topoisomerase IV) | Minimum inhibitory concentration (MIC) (Bacillus subtilis [2]) | Minimum inhibitory concentration (MIC) (Staphylococcus aureus) | Minimum inhibitory concentration (MIC) (Pseudomonas aeruginosa [3]) | Minimum inhibitory concentration (MIC) (Escherichia Coli [4]) | activity as % of fluconazole (Candida albicans; C. albicans) | Inhibition zone diameter (Candida albicans; Candida albicans (fungi)) | Inhibition zone diameter (Aspergillus flavus) | Inhibition zone diameter (Staph. aureus) | RA (residual activity of the enzyme) E. Coli DNA gyrase (E. coli DNA gyrase) | Inhibition zone diameter (Bacillus subtilis [5]) | Inhibition zone diameter (Pseudomonas aeruginosa [6]) | Inhibition zone diameter (Escherichia Coli [7])
Oc1ccccc1C=Nc1ccccc1O [I, N-(salicylidene)-2-hydroxyaniline] | 8 µg/mL (≈ 37.5 µM) | did not show cytotoxic effects | Over 80% |  |  |  |  |  |  |  |  |  |  |  |  | 
N'-((E)-4-Methylbenzylidene)-4-(4-(2-((Z)-4-methylbenzylidene)hydrazine-1-carbonyl)-3-hydroxybenzyl)-2-hydroxybenzohydrazide [Compound 5f] |  |  |  | 77% | 0.125 µg/mL | 0.070 µg/mL | 0.125 µg/mL | 0.125 µg/mL | 38% | 15 mm/mg Sample | 0.0 mm/mg Sample | 37 mm/mg Sample | 53% | 37 mm/mg Sample | 33 mm/mg Sample | 33 mm/mg Sample
